Measurements as given in US9701670B2, “Pyrazolyl-ureas as kinase inhibitors” (RESPIVERT LIMITED, priority 2013, dated 2017).

Columns and labels:
[1] = molecular target: p38 MAPKα isoform (MAPK14) (Homo sapiens (Human), UniProt Q16539); experiment: p38 MAPKα enzyme inhibition (FRET, Z-LYTE), Method 1; assay type: biochemical; conditions: Method 1 (Table 4a1)
[2] = tested on: Differentiated U937 cells; experiment: (l) Cell viability: MTT assay; assay type: cell-based, human; conditions: 1 μg/mL
Procedure, shortened: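 MTT read-out (1 h, absorbance 550 nm) on d-U937 cells after pre-incubation with 1 or 10 μg/mL compound under two regimes: 4 h, 5% FCS, or 24 h, 10% FCS RPMI1640. Values are percent loss of viability relative to vehicle (0.5% DMSO), so increases are reported as negative.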

Sequence of p38 MAPKα isoform (MAPK14) (Q16539 whole entry, canonical isoform): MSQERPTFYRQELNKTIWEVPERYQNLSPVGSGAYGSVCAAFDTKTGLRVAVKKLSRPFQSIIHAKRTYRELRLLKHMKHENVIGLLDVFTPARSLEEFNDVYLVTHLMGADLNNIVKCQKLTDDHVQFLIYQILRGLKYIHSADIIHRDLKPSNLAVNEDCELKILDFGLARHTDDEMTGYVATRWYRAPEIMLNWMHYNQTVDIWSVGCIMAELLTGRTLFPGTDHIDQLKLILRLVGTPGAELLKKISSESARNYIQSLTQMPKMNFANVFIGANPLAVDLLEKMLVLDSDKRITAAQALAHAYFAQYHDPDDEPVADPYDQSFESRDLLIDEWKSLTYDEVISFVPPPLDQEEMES

Row | Structure (SMILES) | IC50 [1] [nM] | Cell viability at time point in d-U937 cells 4 h [2] | Cell viability at time point in d-U937 cells 24 h [2]
1 | Cc1ccc(-n2nc(C(C)(C)C)cc2NC(=O)Nc2ccc(Oc3ccnc(Nc4cc(Br)cc(C(=O)NCCN5CCOCC5)c4)n3)c3ccccc23)cc1 [Example 62, 3-bromo-5-((4-((4-(3-(3-(tert-butyl)-1-(p-tolyl)-1H-pyrazol-5-yl)ureido)naphthalen-1-yl)oxy)pyrimidin-2-yl)amino)-N-(2-morpholinoethyl)benzamide] | 22 | −ve (−ve and +ve indicate that the value is below and above respectively, the no significant effect threshold, defined as 30% inhibition at 1 μg/mL at the time point indicated.) | +ve (−ve and +ve indicate that the value is below and above respectively, the no significant effect threshold, defined as 30% inhibition at 1 μg/mL at the time point indicated.)
2 | COc1cc(Nc2nccc(Oc3ccc(NC(=O)Nc4cc(C(C)(C)C)nn4-c4ccc(C)cc4)c4ccccc34)n2)cc(C(=O)NCCO)c1 [Example 64, 3-((4-((4-(3-(3-(tert-butyl)-1-(p-tolyl)-1H-pyrazol-5-yl)ureido)naphthalen-1-yl)oxy)pyrimidin-2-yl)amino)-N-(2-hydroxyethyl)-5-methoxybenzamide] | 8 | −ve (−ve and +ve indicate that the value is below and above respectively, the no significant effect threshold, defined as 30% inhibition at 1 μg/mL at the time point indicated.) | −ve (−ve and +ve indicate that the value is below and above respectively, the no significant effect threshold, defined as 30% inhibition at 1 μg/mL at the time point indicated.)
3 | COc1ccc(-n2nc(C(C)C)cc2NC(=O)Nc2ccc(Oc3ccnc(Nc4cc(OC)cc(C(=O)NCCO)c4)n3)c3ccccc23)cc1 [Example 65, N-(2-hydroxyethyl)-3-((4-((4-(3-(3-isopropyl-1-(4-methoxyphenyl)-1H-pyrazol-5-yl)ureido)naphthalen-1-yl)oxy)pyrimidin-2-yl)amino)-5-methoxybenzamide] | 23 | −ve (−ve and +ve indicate that the value is below and above respectively, the no significant effect threshold, defined as 30% inhibition at 1 μg/mL at the time point indicated.) | −ve (−ve and +ve indicate that the value is below and above respectively, the no significant effect threshold, defined as 30% inhibition at 1 μg/mL at the time point indicated.)
4 | COCCNC(=O)c1cc(Nc2nccc(Oc3ccc(NC(=O)Nc4cc(C(C)C)nn4-c4ccc(C)cc4)c4ccccc34)n2)cc(OC)c1 [Example 66, 3-((4-((4-(3-(3-isopropyl-1-(p-tolyl)-1H-pyrazol-5-yl)ureido)naphthalen-1-yl)oxy)pyrimidin-2-yl)amino)-5-methoxy-N-(2-methoxyethyl)benzamide] | 24 | −ve (−ve and +ve indicate that the value is below and above respectively, the no significant effect threshold, defined as 30% inhibition at 1 μg/mL at the time point indicated.) | −ve (−ve and +ve indicate that the value is below and above respectively, the no significant effect threshold, defined as 30% inhibition at 1 μg/mL at the time point indicated.)
5 | COCCNC(=O)c1cc(Nc2nccc(Oc3ccc(NC(=O)Nc4cc(C(C)(C)C)nn4-c4ccc(C)cc4)c4ccccc34)n2)cc(OC)c1 [Example 67, 3-((4-((4-(3-(3-(tert-butyl)-1-(p-tolyl)-1H-pyrazol-5-yl)ureido)naphthalen-1-yl)oxy)pyrimidin-2-yl)amino)-5-methoxy-N-(2-methoxyethyl)benzamide] | 24 | −ve (−ve and +ve indicate that the value is below and above respectively, the no significant effect threshold, defined as 30% inhibition at 1 μg/mL at the time point indicated.) | −ve (−ve and +ve indicate that the value is below and above respectively, the no significant effect threshold, defined as 30% inhibition at 1 μg/mL at the time point indicated.)
6 | COc1cc(Nc2nccc(Oc3ccc(NC(=O)Nc4cc(C(C)C)nn4-c4ccc(C)cc4)c4ccccc34)n2)cc(C(=O)N(C)CCN2CCOCC2)c1 [Example 68, 3-((4-((4-(3-(3-isopropyl-1-(p-tolyl)-1H-pyrazol-5-yl)ureido)naphthalen-1-yl)oxy)pyrimidin-2-yl)amino)-5-methoxy-N-methyl-N-(2-morpholinoethyl)benzamide] | < 1 | −ve (−ve and +ve indicate that the value is below and above respectively, the no significant effect threshold, defined as 30% inhibition at 1 μg/mL at the time point indicated.) | −ve (−ve and +ve indicate that the value is below and above respectively, the no significant effect threshold, defined as 30% inhibition at 1 μg/mL at the time point indicated.)
7 | COc1cc(Nc2nccc(Oc3ccc(NC(=O)Nc4cc(C(C)C)nn4-c4ccc(C)cc4)c4ccccc34)n2)cc(C(=O)N2CCN(C)CC2)c1 [Example 69, 1-(3-isopropyl-1-(p-tolyl)-1H-pyrazol-5-yl)-3-(4-((2-((3-methoxy-5-(4-methylpiperazine-1-carbonyl)phenyl)amino)pyrimidin-4-yl)oxy)naphthalen-1-yl)urea] | 2 | −ve (−ve and +ve indicate that the value is below and above respectively, the no significant effect threshold, defined as 30% inhibition at 1 μg/mL at the time point indicated.) | −ve (−ve and +ve indicate that the value is below and above respectively, the no significant effect threshold, defined as 30% inhibition at 1 μg/mL at the time point indicated.)
8 | COc1ccc(Nc2nccc(Oc3ccc(NC(=O)Nc4cc(C(C)C)nn4-c4ccc(C)cc4)c4ccccc34)n2)cc1C(=O)NCCN1CCOCC1 [Example 70, 5-((4-((4-(3-(3-isopropyl-1-(p-tolyl)-1H-pyrazol-5-yl)ureido)naphthalen-1-yl)oxy)pyrimidin-2-yl)amino)-2-methoxy-N-(2-morpholinoethyl)benzamide] | 5 | −ve (−ve and +ve indicate that the value is below and above respectively, the no significant effect threshold, defined as 30% inhibition at 1 μg/mL at the time point indicated.) | −ve (−ve and +ve indicate that the value is below and above respectively, the no significant effect threshold, defined as 30% inhibition at 1 μg/mL at the time point indicated.)
9 | COc1cc(Nc2cc(Oc3ccc(NC(=O)Nc4cc(C(C)C)nn4-c4ccc(C)cc4)c4ccccc34)ncn2)cc(C(=O)NCCN2CCOCC2)c1 [Example 71, 3-((6-((4-(3-(3-isopropyl-1-(p-tolyl)-1H-pyrazol-5-yl)ureido)naphthalen-1-yl)oxy)pyrimidin-4-yl)amino)-5-methoxy-N-(2-morpholinoethyl)benzamide] | 2 | −ve (−ve and +ve indicate that the value is below and above respectively, the no significant effect threshold, defined as 30% inhibition at 1 μg/mL at the time point indicated.) | −ve (−ve and +ve indicate that the value is below and above respectively, the no significant effect threshold, defined as 30% inhibition at 1 μg/mL at the time point indicated.)
